{"source": "paper PMC7722985", "about": "(Biochemistry, 2015)", "key": {"p300 Taz2": {"test_system": "p300 Taz2", "settings": "cited from earlier work"}, "Taz2 R1731A": {"test_system": "Taz2 R1731A", "assay": "ITC binding of p53", "settings": "ITC at 35 °C"}, "Taz2 S1741D": {"test_system": "Taz2 S1741D", "assay": "ITC binding of p53", "settings": "ITC at 35 °C"}, "Taz2 domain of p300 [1]": {"test_system": "Taz2 domain of p300", "assay": "Salt dependence of p53", "format": "binding", "settings": "ITC at 35 °C; similar pH values; 100 mM acetate as opposed to 100 mM NaCl"}, "[2]": {"test_system": "Taz2 domain of p300 (A1723-K1812/C1738A, C1746A, C1789A, C1790A)", "assay": "ITC binding of p53", "settings": "for Ka: ITC, 20 mM Tris-HCl (pH 7.2), 100 mM NaCl, 2 mM β-mercaptoethanol, 35 °C, 1:1 binding model, performed at least twice, ND = No binding was detected"}, "Taz2 domain of p300 [3]": {"test_system": "Taz2 domain of p300", "assay": "pH dependence of p53 binding to Taz2 by ITC", "settings": "between pH 5.9 and 6.8; ITC at 35 °C; 100 mM Tris, 100 mM Bis-Tris, 100 mM acetate"}, "CBP Taz2": {"test_system": "CBP Taz2", "settings": "α1, α2, α3 surface of Taz2; cited from earlier work"}, "[4]": {"settings": "ITC at 35 °C, pH 7.2, 100 mM NaCl"}}}
{"substance": "p53(35–59): p53 TAD2 peptide, residues 35–59, synthesized by solid-phase method or expressed as GST fusion", "values": [{"measurement": "effect of phosphorylation on Taz2 binding", "setting": "p300 Taz2", "value": "does not significantly affect binding"}, {"measurement": "reduction in binding affinity vs wild-type Taz2", "setting": "Taz2 R1731A", "value": 3, "unit": "fold"}, {"measurement": "effect of Taz2 mutation on binding", "setting": "Taz2 S1741D", "value": "did not affect binding"}, {"measurement": "affinity in 100 mM acetate vs 100 mM NaCl", "setting": "Taz2 domain of p300 [1]", "value": "significantly higher"}]}
{"substance": "p53 M40A: p53(35–59) mutant peptide M40A", "values": [{"measurement": "Ka", "setting": "[2]", "value": "(1.32 ± 0.05) × 10^6 M^−1"}]}
{"substance": "p53(1–57): p53(1–57), both TAD subdomains", "values": [{"measurement": "overall affinity for Taz2 relative to single subdomains", "setting": "p300 Taz2", "value": "overall affinity higher than that of either interaction alone"}]}
{"substance": "p53(1–39): p53 TAD1, residues 1–39 [reference compound]", "values": [{"measurement": "pH dependence of affinity for Taz2, pH 5.9 to 6.8", "setting": "Taz2 domain of p300 [3]", "value": "not dependent upon pH between pH 5.9 and 6.8"}]}
{"substance": "p53 F54S: p53(35–59) with mutation of Phe54 to serine", "values": [{"measurement": "reduction in the association constant compared with wild-type p53 peptide", "setting": "[2]; [4]", "value": 55, "unit": "%"}, {"measurement": "Ka", "setting": "[2]", "value": "(0.53 ± 0.09) × 10^6 M^−1"}]}
{"substance": "p53 I50A: p53(35–59) mutant peptide I50A", "values": [{"measurement": "weaker binding to Taz2 than wild-type", "setting": "[2]; [4]", "value": 3, "unit": "fold"}, {"measurement": "Ka", "setting": "[2]", "value": "(0.31 ± 0.01) × 10^6 M^−1"}]}
{"substance": "p53 Q52E: p53(35–59) mutant peptide Q52E", "values": [{"measurement": "Ka", "setting": "[2]", "value": "(1.29 ± 0.35) × 10^6 M^−1"}]}
{"substance": "p53 L45A: p53(35–59) mutant peptide L45A", "values": [{"measurement": "Ka", "setting": "[2]", "value": "(0.91 ± 0.04) × 10^6 M^−1"}]}
{"substance": "p53 pThr55: p53(35–59) phosphorylated at Thr55", "values": [{"measurement": "Ka", "setting": "[2]", "value": "(1.30 ± 0.05) × 10^6 M^−1"}]}
{"substance": "p53 TAD1: first transactivation subdomain of p53 (residues 1–39)", "values": [{"measurement": "effect of phosphorylation on Taz2 binding", "setting": "p300 Taz2", "value": "increased its affinity for p300 Taz2"}, {"measurement": "binding to CBP Taz2", "setting": "CBP Taz2", "value": "high affinity"}]}
{"substance": "W53A/F54A double mutation of p53(25–65): W53A/F54A double mutation of p53(25–65)", "values": [{"measurement": "Taz2 binding of double mutant", "setting": "p300 Taz2", "value": "abrogated Taz2 binding"}]}
{"substance": "p53 W53Q: p53(35–59) with Trp53 mutated to glutamine (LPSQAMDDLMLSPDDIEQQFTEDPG)", "values": [{"measurement": "detectable binding to Taz2", "setting": "[2]; ITC at 35 °C", "value": "loss of detectable binding"}]}
{"substance": "p53 TAD2: second transactivation subdomain of p53 (residues 40–61)", "values": [{"measurement": "effect of phosphorylation on Taz2 binding", "setting": "p300 Taz2", "value": "unaffected by phosphorylation"}, {"measurement": "affinity for Taz2", "setting": "p300 Taz2; p53 TAD2 compared with p53 TAD1", "value": "tighter than that of p53 TAD1"}, {"measurement": "binding to CBP Taz2", "setting": "CBP Taz2", "value": "high affinity"}]}
{"substance": "p53 D48N: p53(35–59) with mutation of Asp48 to asparagine", "values": [{"measurement": "Ka", "setting": "[2]", "value": "(0.60 ± 0.08) × 10^6 M^−1"}]}
{"substance": "p53 E51Q: p53(35–59) with mutation of Glu51 to glutamine", "values": [{"measurement": "Ka", "setting": "[2]", "value": "(0.56 ± 0.13) × 10^6 M^−1"}]}
{"substance": "p53 T55A: p53(35–59) mutant peptide T55A", "values": [{"measurement": "Ka", "setting": "[2]", "value": "(1.16 ± 0.10) × 10^6 M^−1"}]}
